How the values were obtained:
Type in all cases: cell-based
[1] = system: Phaffia rhodozyma ATCC96594; test: Effect of the squalene synthase inhibitor on the cell growth of Phaffia rhodozyma (Example 1)
Protocol: Phaffia rhodozyma ATCC96594 (redeposited under the accession No. ATCC 74438 on Apr. 8, 1998 pursuant to the Budapest Treaty) was inoculated into YPD medium (DIFCO, Detroit, U.S.A., 10 mL in tube) and cultivated by shaking at 20° C. for 2 days. 0.5 mL of the culture was inoculated into fresh YPD medium (10 mL in tube) containing 30 g/L of glucose and 0, 0.2, 0.5, 1.0, 2.0, 5.0, 10.0, and 20.0, μg/mL, respectively, of [3-(3-allyl-biphenyl-4-yl-oxy)-propyl]-isopropyl-amine, and cultivated by shaking at 20° C. for 5 days. An aliquot of the culture was withdrawn occasionally during the cultivation, and optical density at 660 nm was measured by using UV-1200 photometer (Shimadzu Corp., Kyoto, Japan) for analysis of the cell growth.

[2] = system: Phaffia rhodozyma ATCC96594; test: Effect of the squalene synthase inhibitor on astaxanthin production by Phaffia rhodozyma (Example 2); details: for Astaxanthin content (relative values): relative to Day 7 without inhibitor = 100
Protocol: Phaffia rhodozyma ATCC96594 (redeposited under the accession No. ATCC 74438 on Apr. 8, 1998 pursuant to the Budapest Treaty) was inoculated into YPD medium as in Example 1 and cultivated by shaking at 20° C. for 2 days. 2.5 ml of the culture were inoculated into fresh YPD medium (50 mL in flask) containing 22 g/L of glucose and 0, 0.5, 1.0, 2.0, and 5.0, μg/mL, respectively, of [3-(3-allyl-biphenyl-4-yloxy)-propyl]-isopropyl-amine, and cultivated by shaking at 20° C. for 7 days. On Day 2 of the cultivation, 50 g/L of glucose was added to the culture. Addition of the inhibitor in the middle of the cultivation was also tested. An aliquot of the culture was withdrawn at Day 4 and Day 7 of the cultivation, and optical density at 660 nm (by using the same method described in Example 1) and astaxanthin content in the culture were measured. For analysis of the content of astaxanthin, the withdrawn broth was mixed with a solvent mixture (ethyl alcohol, hexane and ethyl acetate) and carotenoids were extracted from the cells of Phaffia rhodozyma by vigorous shaking with glass beads. After extraction, disrupted cells and glass beads were removed by centrifugation and the resultant supernatant was analyzed by HPLC for the astaxanthin content. The HPLC conditions used were as follows: [table] A reference sample of astaxanthin was obtained from Hoffmann La-Roche (Basel, Switzerland).

[3] = system: Phaffia rhodozyma ATCC96594; test: Cell growth of Phaffia rhodozyma during astaxanthin production culture (Example 2)
Protocol: An aliquot of the culture was withdrawn occasionally during the cultivation, and optical density at 660 nm was measured by using UV-1200 photometer (Shimadzu Corp., Kyoto, Japan) for analysis of the cell growth. Phaffia rhodozyma ATCC96594 (redeposited under the accession No. ATCC 74438 on Apr. 8, 1998 pursuant to the Budapest Treaty) was inoculated into YPD medium as in Example 1 and cultivated by shaking at 20° C. for 2 days. 2.5 ml of the culture were inoculated into fresh YPD medium (50 mL in flask) containing 22 g/L of glucose and 0, 0.5, 1.0, 2.0, and 5.0, μg/mL, respectively, of [3-(3-allyl-biphenyl-4-yloxy)-propyl]-isopropyl-amine, and cultivated by shaking at 20° C. for 7 days. On Day 2 of the cultivation, 50 g/L of glucose was added to the culture. Addition of the inhibitor in the middle of the cultivation was also tested. An aliquot of the culture was withdrawn at Day 4 and Day 7 of the cultivation, and optical density at 660 nm (by using the same method described in Example 1) and astaxanthin content in the culture were measured.

[4] = 5.0 μg/mL inhibitor added at Day 2 of the cultivation, Day 4
[5] = 5.0 μg/mL inhibitor added at Day 2 of the cultivation, Day 7
[6] = 5.0 μg/mL inhibitor from start, Day 4
[7] = 5.0 μg/mL inhibitor from start, Day 7

**Q.** For `C=CCc1cc(-c2ccccc2)ccc1OCCCNC(C)C` [[3-(3-allyl-biphenyl-4-yloxy)-propyl]-isopropyl-amine], which “Cell growth (OD at 660 nm)” value ([1]; 0.2 μg/mL inhibitor, Day 1) is on record?
**A.** The value was 4.5.

**Q.** And the “Cell growth (OD at 660 nm)” value ([1]; 0.2 μg/mL inhibitor, Day 2)?
**A.** The value was 16.7.

**Q.** What about the “Cell growth (OD at 660 nm)” value ([1]; 0.2 μg/mL inhibitor, Day 3) of the same compound?
**A.** The value was 20.1.

**Q.** What about the “Cell growth (OD at 660 nm)” value ([1]; 0.2 μg/mL inhibitor, Day 5) of the same compound?
**A.** Its value is 19.3.

**Q.** And the “Cell growth (OD at 660 nm)” value ([1]; 0.5 μg/mL inhibitor, Day 1)?
**A.** The value was 4.4.

**Q.** And the “Cell growth (OD at 660 nm)” value ([1]; 0.5 μg/mL inhibitor, Day 2)?
**A.** The value was 15.6.

**Q.** And the “Cell growth (OD at 660 nm)” value ([1]; 0.5 μg/mL inhibitor, Day 3)?
**A.** The value was 20.4.

**Q.** What about the “Cell growth (OD at 660 nm)” value ([1]; 0.5 μg/mL inhibitor, Day 5) of the same compound?
**A.** The value was 19.4.

**Q.** And the “Cell growth (OD at 660 nm)” value ([1]; 1.0 μg/mL inhibitor, Day 1)?
**A.** Its value is 4.0.

**Q.** What about the “Cell growth (OD at 660 nm)” value ([1]; 1.0 μg/mL inhibitor, Day 2) of the same compound?
**A.** The value was 15.0.

**Q.** What about the “Cell growth (OD at 660 nm)” value ([1]; 1.0 μg/mL inhibitor, Day 3) of the same compound?
**A.** Its value is 20.0.

**Q.** What about the “Cell growth (OD at 660 nm)” value ([1]; 1.0 μg/mL inhibitor, Day 5) of the same compound?
**A.** Its value is 19.5.

**Q.** And the “Cell growth (OD at 660 nm)” value ([1]; 2.0 μg/mL inhibitor, Day 1)?
**A.** The value was 3.6.

**Q.** And the “Cell growth (OD at 660 nm)” value ([1]; 2.0 μg/mL inhibitor, Day 2)?
**A.** The value was 15.0.

**Q.** What about the “Cell growth (OD at 660 nm)” value ([1]; 2.0 μg/mL inhibitor, Day 3) of the same compound?
**A.** The value was 19.5.

**Q.** And the “Cell growth (OD at 660 nm)” value ([1]; 2.0 μg/mL inhibitor, Day 5)?
**A.** Its value is 19.0.

**Q.** And the “Cell growth (OD at 660 nm)” value ([1]; 5.0 μg/mL inhibitor, Day 1)?
**A.** Its value is 2.9.

**Q.** And the “Cell growth (OD at 660 nm)” value ([1]; 5.0 μg/mL inhibitor, Day 2)?
**A.** The value was 12.3.

**Q.** What about the “Cell growth (OD at 660 nm)” value ([1]; 5.0 μg/mL inhibitor, Day 3) of the same compound?
**A.** Its value is 18.8.

**Q.** And the “Cell growth (OD at 660 nm)” value ([1]; 5.0 μg/mL inhibitor, Day 5)?
**A.** Its value is 18.0.

**Q.** What about the “Cell growth (OD at 660 nm)” value ([1]; 10.0 μg/mL inhibitor, Day 1) of the same compound?
**A.** The value was 2.0.

**Q.** And the “Cell growth (OD at 660 nm)” value ([1]; 10.0 μg/mL inhibitor, Day 2)?
**A.** Its value is 5.6.

**Q.** And the “Cell growth (OD at 660 nm)” value ([1]; 10.0 μg/mL inhibitor, Day 3)?
**A.** The value was 14.7.

**Q.** What about the “Cell growth (OD at 660 nm)” value ([1]; 10.0 μg/mL inhibitor, Day 5) of the same compound?
**A.** The value was 16.9.

**Q.** And the “Cell growth (OD at 660 nm)” value ([1]; 20.0 μg/mL inhibitor, Day 1)?
**A.** Its value is 1.2.

**Q.** And the “Cell growth (OD at 660 nm)” value ([1]; 20.0 μg/mL inhibitor, Day 2)?
**A.** Its value is 1.7.

**Q.** And the “Cell growth (OD at 660 nm)” value ([1]; 20.0 μg/mL inhibitor, Day 3)?
**A.** The value was 2.7.

**Q.** What about the “Cell growth (OD at 660 nm)” value ([1]; 20.0 μg/mL inhibitor, Day 5) of the same compound?
**A.** Its value is 7.0.

**Q.** And the inhibition at 5 µg/mL ([1]; Phaffia rhodozyma, ATCC96594, 48 h, 5.0 μg/mL inhibitor, Day 2)?
**A.** Its inhibition at 5 µg/mL is roughly 23%.

**Q.** What about the “cell growth (effect in words)” value ([1]; concentration not higher than 2.0 μg/mL) of the same compound?
**A.** Its value is “not affected”.

**Q.** What about the “Astaxanthin content (relative values)” value ([2]; 0.5 μg/mL inhibitor, Day 4) of the same compound?
**A.** Its value is 75.

**Q.** What about the “Astaxanthin content (relative values)” value ([2]; 0.5 μg/mL inhibitor, Day 7) of the same compound?
**A.** The value was 114.

**Q.** And the “Astaxanthin content (relative values)” value ([2]; 1.0 μg/mL inhibitor, Day 4)?
**A.** The value was 77.

**Q.** What about the “Astaxanthin content (relative values)” value ([2]; 1.0 μg/mL inhibitor, Day 7) of the same compound?
**A.** The value was 118.

**Q.** And the “Astaxanthin content (relative values)” value ([2]; 2.0 μg/mL inhibitor, Day 4)?
**A.** Its value is 75.

**Q.** And the “Astaxanthin content (relative values)” value ([2]; 2.0 μg/mL inhibitor, Day 7)?
**A.** The value was 125.

**Q.** What about the “Astaxanthin content (relative values)” value [2, 4] of the same compound?
**A.** Its value is 84.

**Q.** What about the “Astaxanthin content (relative values)” value [2, 5] of the same compound?
**A.** Its value is 131.

**Q.** What about the “Astaxanthin content (relative values)” value [2, 6] of the same compound?
**A.** Its value is 67.

**Q.** And the “Astaxanthin content (relative values)” value [2, 7]?
**A.** The value was 129.

**Q.** And the “Astaxanthin production (effect in words)” value ([2]; all conditions tested (0.5-5.0 μg/mL, from start or added at Day 2))?
**A.** Its value is “enhanced”.

**Q.** What about the “Cell growth (OD at 660 nm)” value ([3]; 0.5 μg/mL inhibitor, Day 4) of the same compound?
**A.** The value was 39.6.

**Q.** What about the “Cell growth (OD at 660 nm)” value ([3]; 0.5 μg/mL inhibitor, Day 7) of the same compound?
**A.** The value was 39.8.

**Q.** What about the “Cell growth (OD at 660 nm)” value ([3]; 1.0 μg/mL inhibitor, Day 4) of the same compound?
**A.** Its value is 40.3.

**Q.** What about the “Cell growth (OD at 660 nm)” value ([3]; 1.0 μg/mL inhibitor, Day 7) of the same compound?
**A.** The value was 39.8.

**Q.** And the “Cell growth (OD at 660 nm)” value ([3]; 2.0 μg/mL inhibitor, Day 4)?
**A.** The value was 38.2.

**Q.** And the “Cell growth (OD at 660 nm)” value ([3]; 2.0 μg/mL inhibitor, Day 7)?
**A.** The value was 39.3.

**Q.** And the “Cell growth (OD at 660 nm)” value [3, 4]?
**A.** Its value is 37.4.

**Q.** What about the “Cell growth (OD at 660 nm)” value [3, 5] of the same compound?
**A.** The value was 37.9.

**Q.** What about the “Cell growth (OD at 660 nm)” value [3, 6] of the same compound?
**A.** Its value is 40.2.

**Q.** And the “Cell growth (OD at 660 nm)” value [3, 7]?
**A.** The value was 39.5.
